Experimental data published in patent publication US20250066389A1, “HETEROCYCLIC AMIDES AND METHODS OF USING THE SAME” (Rgenta Therapeutics, Inc., priority 2021, published 2025).

What follows are molecules tested on PMS1 (assay: Mini-Gene Reporter Assay—PMS1 (firefly luciferase mini-gene reporter transiently transfected into HEK293 cells)). Details: Homo sapiens; at 5 uM; mini-gene firefly luciferase reporter in HEK293 cells; read-out: PMS1 % Effect at 5 uM.
Type: cell-based
Outline: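 Luminescence (RLU) read-out of exon inclusion: compound dilutions, tested in duplicate, act on transiently transfected HEK293 cells carrying a firefly luciferase reporter fused downstream of the PMS1 skipped-exon region. Potency derived by Levenberg-Marquardt curve fitting, with percent effect at 5 μM.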

Row | SMILES | activation at 5 µM
1 | CCOc1cc2nn(C)cc2cc1C(=O)Nc1cnc(NC2CCCNC2C)cn1 (stereo not drawn) [Compound 319] | < 50%
2 | CCOc1cc2nn(C)cc2cc1C(=O)Nc1cnc(N2CC34CCCC3(CNC4)C2)cn1 (stereo not drawn) [Compound 320] | < 50%
3 | CCOc1cc2nn(C)cc2cc1C(=O)Nc1cnc(N2CC(N)CC2C)cn1 (stereo not drawn) [Compound 321] | > 75%
4 | CCOc1cc2nn(C)cc2cc1C(=O)Nc1cnc(NCC2C3CNCC32)cn1 (stereo not drawn) [Compound 322] | < 50%
5 | CCOc1cc2nn(C)cc2cc1C(=O)Nc1cnc(NC2CNCC(C)C2)cn1 (stereo not drawn) [Compound 323] | < 50%
6 | CCOc1cc2nn(C)cc2cc1C(=O)Nc1cnc(NC2C=CCNC2)cn1 (stereo not drawn) [Compound 324] | < 50%
7 | CCOc1cc2nn(C)cc2cc1C(=O)Nc1cnc(N2[C@H](CN)C[C@@H]3CCC[C@@H]32)cn1 [Compound 325] | < 50%
8 | CCOc1cc2nn(C)cc2cc1C(=O)Nc1cnc(N2CC(N)C(C)(C)C2)cn1 (stereo not drawn) [Compound 326] | > 75%
9 | CCOc1cc2nn(C)cc2cc1C(=O)Nc1cnc(NCC[C@@H]2C[C@H](OC)CN2)cn1 [Compound 327] | < 50%
10 | CCOc1cc2nn(C)cc2cc1C(=O)Nc1cnc(NC(C)CNC)cn1 (stereo not drawn) [Compound 328] | < 50%
11 | CCOc1cc2nn(C)cc2cc1C(=O)Nc1cnc(NCC2CCC3(CCNCC3)CC2)cn1 [Compound 329] | < 50%
12 | CCOc1cc2nn(C)cc2cc1C(=O)Nc1cnc(N2CC(CO)C3(CNC3)C2)cn1 (stereo not drawn) [Compound 330] | < 50%
13 | CCOc1cc2nn(C)cc2cc1C(=O)Nc1cnc(N2CC34CCCCC3(CNC4)C2)cn1 (stereo not drawn) [Compound 331] | < 50%
14 | CCOc1cc2nn(C)cc2cc1C(=O)Nc1cnc(N2CCCNC(C)C2)cn1 (stereo not drawn) [Compound 332] | > 75%
15 | CCOc1cc2nn(C)cc2cc1C(=O)Nc1cnc(NCC[C@H]2CCNC2)cn1 [Compound 333] | < 50%
16 | CCOc1cc2nn(C)cc2cc1C(=O)Nc1cnc(NCc2ccc(CN3CCNCC3)cc2)cn1 [Compound 334] | < 50%
17 | CCOc1cc2nn(C)cc2cc1C(=O)Nc1cnc(NCC2CCNCC2(F)F)cn1 (stereo not drawn) [Compound 335] | < 50%
18 | CCOc1cc2nn(C)cc2cc1C(=O)Nc1cnc(N2CC3(CNCCO3)C2)cn1 [Compound 337] | < 50%
19 | CCOc1cc2nn(C)cc2cc1C(=O)Nc1cnc(N2CCC(C3CCCN3)CC2)cn1 (stereo not drawn) [Compound 338] | > 75%
20 | CCOc1cc2nn(C)cc2cc1C(=O)Nc1cnc(N2CCCC(NCCO)C2)cn1 (stereo not drawn) [Compound 339] | > 75%
21 | CCOc1cc2nn(C)cc2cc1C(=O)Nc1cnc(N2CCC[C@H]3CNC[C@H]32)cn1 [Compound 340] | 50 to 75%
22 | CCOc1cc2nn(C)cc2cc1C(=O)Nc1cnc(N2CCOC3(CCNC3)C2)cn1 (stereo not drawn) [Compound 341] | < 50%
23 | CCOc1cc2nn(C)cc2cc1C(=O)Nc1cnc(N2C[C@@H](F)C[C@H]2CNC)cn1 [Compound 342] | < 50%
24 | CCOc1cc2nn(C)cc2cc1C(=O)Nc1cnc(N2CCC3(CCCN3)CC2)cn1 [Compound 343] | > 75%
25 | CCNCCN(CC)c1cnc(NC(=O)c2cc3cn(C)nc3cc2OCC)cn1 [Compound 344] | < 50%
26 | CCOc1cc2nn(C)cc2cc1C(=O)Nc1cnc(NCC2CNCCOC2)cn1 (stereo not drawn) [Compound 347] | < 50%

Row | SMILES | activation at 5 µM
27 | CCOc1cc2nn(C)cc2cc1C(=O)Nc1cnc(NC2CCNCC2C)cn1 (stereo not drawn) [Compound 348] | 50 to 75%
28 | CCOc1cc2nn(C)cc2cc1C(=O)Nc1cnc(NCC2COCCN2)cn1 (stereo not drawn) [Compound 349] | < 50%
29 | CCOc1cc2nn(C)cc2cc1C(=O)Nc1cnc(N2CCC3(CC2)CNCCO3)cn1 [Compound 350] | 50 to 75%
30 | CCOc1cc2nn(C)cc2cc1C(=O)Nc1cnc(N2CCCNCC2C)cn1 (stereo not drawn) [Compound 351] | < 50%
31 | CCOc1cc2nn(C)cc2cc1C(=O)Nc1cnc(N2CCC3(CCNCC3)C2)cn1 [Compound 352] | > 75%
32 | CCOc1cc2nn(C)cc2cc1C(=O)Nc1cnc(N2CCCC(CCN)C2)cn1 (stereo not drawn) [Compound 353] | < 50%
33 | CCOc1cc2nn(C)cc2cc1C(=O)Nc1cnc(NCC2CNCCO2)cn1 (stereo not drawn) [Compound 354] | < 50%
34 | CCOc1cc2nn(C)cc2cc1C(=O)Nc1cnc(NC2CCNCC2F)cn1 (stereo not drawn) [Compound 355] | > 75%
35 | CCOc1cc2nn(C)cc2cc1C(=O)Nc1cnc(NC(C)C2CCNCC2)cn1 (stereo not drawn) [Compound 356] | < 50%
36 | CCOc1cc2nn(C)cc2cc1C(=O)Nc1cnc(N2CCOC3(CCNCC3)C2)cn1 [Compound 357] | < 50%
37 | CCOc1cc2nn(C)cc2cc1C(=O)Nc1cnc(NCCC2CCCCN2)cn1 (stereo not drawn) [Compound 358] | 50 to 75%
38 | CCOc1cc2nn(C)cc2cc1C(=O)Nc1cnc(NC[C@@H]2C[C@H]3CC[C@@H](C2)N3)cn1 [Compound 359] | < 50%
39 | CCOc1cc2nn(C)cc2cc1C(=O)Nc1cnc(N2CCN[C@@H](C(C)C)C2)cn1 [Compound 360] | > 75%
40 | CCOc1cc2nn(C)cc2cc1C(=O)Nc1cnc(N2CCC(NC)C2)cn1 (stereo not drawn) [Compound 361] | > 75%
41 | CCOc1cc2nn(C)cc2cc1C(=O)Nc1cnc(NCCCN2CCNCC2)cn1 [Compound 362] | < 50%
42 | CCOc1cc2nn(C)cc2cc1C(=O)Nc1cnc(N2C[C@H]3CNC[C@H]3C2)cn1 [Compound 363] | > 75%
43 | CCOc1cc2nn(C)cc2cc1C(=O)Nc1cnc(NC[C@@H]2CCNC2)cn1 [Compound 364] | 50 to 75%
44 | CCCNCCNc1cnc(NC(=O)c2cc3cn(C)nc3cc2OCC)cn1 [Compound 365] | > 75%
45 | CCOc1cc2nn(C)cc2cc1C(=O)Nc1cnc(N[C@@H]2C[C@H]3CC[C@@H](C2)N3)cn1 [Compound 366] | > 75%
46 | CCOc1cc2nn(C)cc2cc1C(=O)Nc1cnc(N[C@H]2C[C@H]3CC[C@@H](C2)N3)cn1 [Compound 367] | > 75%
47 | CCOc1cc2nn(C)cc2cc1C(=O)Nc1cnc(N2CCNCC2)cn1 [Compound 370] | > 75%
48 | CCOc1cc2nn(C)cc2cc1C(=O)Nc1cnc(N2CCC(N)CC2)cn1 [Compound 371] | > 75%
49 | CCOc1cc2nn(C)cc2cc1C(=O)Nc1cnc(N2CCC(N)C2)cn1 (stereo not drawn) [Compound 372] | > 75%
50 | CCOc1cc2nn(C)cc2cc1C(=O)Nc1cnc(NC2CCNCC2)cn1 [Compound 373] | > 75%
51 | CCOc1cc2nn(C)cc2cc1C(=O)Nc1cnc(N2CCNC(C)C2)cn1 (stereo not drawn) [Compound 374] | > 75%
52 | CCOc1cc2nn(C)cc2cc1C(=O)Nc1cnc(NC2CCCNC2)cn1 (stereo not drawn) [Compound 375] | 50 to 75%

Row | SMILES | activation at 5 µM
53 | CCOc1cc2nn(C)cc2cc1C(=O)Nc1cnc(N[C@@H]2CCNC2)cn1 [Compound 376] | > 75%
54 | CCOc1cc2nn(C)cc2cc1C(=O)Nc1cnc(N[C@@H]2CCCNC2)cn1 [Compound 377] | 50 to 75%
55 | CCOc1cc2nn(C)cc2cc1C(=O)Nc1cnc(NCC2CCCNC2)cn1 (stereo not drawn) [Compound 378] | < 50%
56 | CCOc1cc2nn(C)cc2cc1C(=O)Nc1cnc(N[C@@H]2CNC[C@H](F)C2)nc1 [Compound 380] | < 50%
57 | CCOc1cc2nn(C)cc2cc1C(=O)Nc1cnc(NCC(F)C2CCNCC2)nc1 (stereo not drawn) [Compound 381] | < 50%
58 | CCOc1cc2nn(C)cc2cc1C(=O)Nc1cnc(N2CCNC(C(F)F)C2)nc1 (stereo not drawn) [Compound 382] | < 50%
59 | CCOc1cc2nn(C)cc2cc1C(=O)Nc1cnc(NC2CCC23CNC3)nc1 (stereo not drawn) [Compound 383] | < 50%
60 | CCOc1cc2nn(C)cc2cc1C(=O)Nc1cnc(NCC[C@H]2C[C@H](N)C2)nc1 [Compound 384] | < 50%
61 | CCOc1cc2nn(C)cc2cc1C(=O)Nc1cnc(NCC2C=CCN2)nc1 (stereo not drawn) [Compound 385] | < 50%
62 | CCOc1cc2nn(C)cc2cc1C(=O)Nc1cnc(N[C@@H]2CNC[C@@H](F)C2)nc1 [Compound 386] | < 50%
63 | CCOc1cc2nn(C)cc2cc1C(=O)Nc1cnc(NCc2nn(C)c3c2CNCC3)nc1 [Compound 388] | < 50%
64 | CCOc1cc2nn(C)cc2cc1C(=O)Nc1cnc(NC[C@H](C)NC)nc1 [Compound 390] | < 50%
65 | CCOc1cc2nn(C)cc2cc1C(=O)Nc1cnc(NC[C@H]2C[C@@](F)(CN)C2)nc1 [Compound 391] | < 50%
66 | CCOc1cc2nn(C)cc2cc1C(=O)Nc1cnc(NC[C@]2(F)C[C@@H](N)C2)nc1 [Compound 392] | < 50%
67 | CCOc1cc2nn(C)cc2cc1C(=O)Nc1cnc(NCc2cc3n(n2)CCNC3)nc1 [Compound 393] | < 50%
68 | CCOc1cc2nn(C)cc2cc1C(=O)Nc1cnc(NC[C@H]2CNCC(C)(C)O2)nc1 [Compound 394] | < 50%
69 | CCOc1cc2nn(C)cc2cc1C(=O)Nc1cnc(NCC2CCNCCC2(F)F)nc1 (stereo not drawn) [Compound 395] | < 50%
70 | CCOc1cc2nn(C)cc2cc1C(=O)Nc1cnc(NC2CNCC23CC3)nc1 (stereo not drawn) [Compound 397] | < 50%
71 | CCOc1cc2nn(C)cc2cc1C(=O)Nc1cnc(NCCCC2CCCN2)nc1 (stereo not drawn) [Compound 398] | < 50%
72 | CCOc1cc2nn(C)cc2cc1C(=O)Nc1cnc(NC2CC3NCCOC3C2)nc1 (stereo not drawn) [Compound 399] | < 50%
73 | CCOc1cc2nn(C)cc2cc1C(=O)Nc1cnc(NC[C@H]2CC[C@H](CNC)CC2)nc1 [Compound 400] | < 50%
74 | CCOc1cc2nn(C)cc2cc1C(=O)Nc1cnc(NCc2c(C)nn3c2CNCC3)nc1 [Compound 403] | < 50%
75 | CCOc1cc2nn(C)cc2cc1C(=O)Nc1cnc(NCC2CC3(CCNC3)CO2)nc1 (stereo not drawn) [Compound 405] | < 50%
76 | CCOc1cc2nn(C)cc2cc1C(=O)Nc1cnc(NCC23CC(N)(C2)C3)nc1 [Compound 406] | < 50%
77 | CCOc1cc2nn(C)cc2cc1C(=O)Nc1cnc(NC2CNCC2(C)C)nc1 (stereo not drawn) [Compound 407] | < 50%
78 | CCOc1cc2nn(C)cc2cc1C(=O)Nc1cnc(NCC2CNC(C)(C)C2)nc1 (stereo not drawn) [Compound 408] | < 50%
